Assay results from ChEMBL document CHEMBL1255419, “Pharmacokinetic-pharmacodynamic assessment of faropenem in a lethal murine Bacillus anthracis inhalation postexposure prophylaxis model” (Antimicrob Agents Chemother, 2010).
Values after ≈ are worked out from the molar mass of the structure shown. Active and inactive are the calls of the source. The rule behind the calls is not given here.

How the values were obtained:
Bacillus anthracis [1] = assay: microbe, parasite or virus in culture; assay type: functional
Bacillus anthracis [2] = assay: microbe, parasite or virus in culture; assay type: functional; remark: listed apart in the source
Bacillus anthracis [3] = assay: microbe, parasite or virus in culture; assay type: functional; remark: listed apart in the source
Bacillus anthracis [4] = assay: Antibacterial activity against beta-lactamase Bla1 and Bla2-producing Bacillus anthracis Sterne by broth microdilution method; assay type: functional
Bacillus anthracis [5] = assay: microbe, parasite or virus in culture; assay type: functional; remark: listed apart in the source
Bacillus anthracis [6] = assay: microbe, parasite or virus in culture; assay type: functional; remark: listed apart in the source
Bacillus anthracis [7] = assay: microbe, parasite or virus in culture; assay type: functional; remark: listed apart in the source
Bacillus anthracis [8] = assay: microbe, parasite or virus in culture; assay type: functional; remark: listed apart in the source
Bacillus anthracis [9] = assay: microbe, parasite or virus in culture; assay type: functional; remark: listed apart in the source
Bacillus anthracis [10] = assay: microbe, parasite or virus in culture; assay type: functional; remark: listed apart in the source
Bacillus anthracis [11] = assay: microbe, parasite or virus in culture; assay type: functional; remark: listed apart in the source
Bacillus anthracis [12] = assay: microbe, parasite or virus in culture; assay type: functional; remark: listed apart in the source
Bacillus anthracis [13] = assay: microbe, parasite or virus in culture; assay type: functional; remark: listed apart in the source
Bacillus anthracis [14] = assay: microbe, parasite or virus in culture; assay type: functional; remark: listed apart in the source
Bacillus anthracis [15] = assay: microbe, parasite or virus in culture; assay type: functional; remark: listed apart in the source
Bacillus anthracis [16] = assay: microbe, parasite or virus in culture; assay type: functional; remark: listed apart in the source
Bacillus anthracis [17] = assay: microbe, parasite or virus in culture; assay type: functional; remark: listed apart in the source
Bacillus anthracis [18] = assay: microbe, parasite or virus in culture; assay type: functional; remark: listed apart in the source
Bacillus anthracis [19] = assay: microbe, parasite or virus in culture; assay type: functional; remark: listed apart in the source
Bacillus anthracis [20] = assay: microbe, parasite or virus in culture; assay type: functional; remark: listed apart in the source
Bacillus anthracis [21] = assay: microbe, parasite or virus in culture; assay type: functional; remark: listed apart in the source
Bacillus anthracis [22] = assay: microbe, parasite or virus in culture; assay type: functional; remark: listed apart in the source
Bacillus anthracis [23] = assay: microbe, parasite or virus in culture; assay type: functional; remark: listed apart in the source
Bacillus anthracis [24] = assay: microbe, parasite or virus in culture; assay type: functional; remark: listed apart in the source
Bacillus anthracis [25] = assay: microbe, parasite or virus in culture; assay type: functional; remark: listed apart in the source
Bacillus anthracis [26] = assay: microbe, parasite or virus in culture; assay type: functional; remark: listed apart in the source
Bacillus anthracis [27] = assay: microbe, parasite or virus in culture; assay type: functional; remark: listed apart in the source
Bacillus anthracis [28] = assay: microbe, parasite or virus in culture; assay type: functional; remark: listed apart in the source
Bacillus anthracis [29] = assay: microbe, parasite or virus in culture; assay type: functional; remark: listed apart in the source
Bacillus anthracis [30] = conditions: Ames, 30 mg/kg
Bacillus anthracis [31] = assay: animal or person; conditions: Ames, in Mus musculus, ip

| SMILES | MIC (Bacillus anthracis [1]) [µg/mL] | MIC (Bacillus anthracis [2]) [µg/mL] | MIC (Bacillus anthracis [3]) [µg/mL] | MIC (Bacillus anthracis [4]) [µg/mL] | MIC (Bacillus anthracis [5]) [µg/mL] | MIC (Bacillus anthracis [6]) [µg/mL] | MIC (Bacillus anthracis [7]) [µg/mL] | MIC (Bacillus anthracis [8]) [µg/mL] | MIC (Bacillus anthracis [9]) [µg/mL] | MIC (Bacillus anthracis [10]) [µg/mL] | MIC (Bacillus anthracis [11]) [µg/mL] | MIC (Bacillus anthracis [13]) [µg/mL] | MIC (Bacillus anthracis [14]) [µg/mL] | MIC (Bacillus anthracis [15]) [µg/mL] | MIC (Bacillus anthracis [16]) [µg/mL] | MIC (Bacillus anthracis [17]) [µg/mL] | MIC (Bacillus anthracis [18]) [µg/mL] | MIC (Bacillus anthracis [19]) [µg/mL] | MIC (Bacillus anthracis [20]) [µg/mL] | MIC (Bacillus anthracis [21]) [µg/mL] | further results |
| --- | --- | --- | --- | --- | --- | --- | --- | --- | --- | --- | --- | --- | --- | --- | --- | --- | --- | --- | --- | --- | --- |
| C[C@@H](O)[C@H]1C(=O)N2C(C(=O)O)=C(S[C@@H]3CN[C@H](C(=O)N(C)C)C3)[C@H](C)[C@H]12 [MEROPENEM] | 0.5 (≈ 1.3 µM) | 0.06 (≈ 0.156 µM) | 0.12 (≈ 0.313 µM) | ≤ 0.06 | 32 (≈ 83.4 µM) | ≤ 0.06 | < 0.06 | 4 (≈ 10.4 µM) | 0.12 (≈ 0.313 µM) | 0.25 (≈ 0.652 µM) | 0.12 (≈ 0.313 µM) | 0.12 (≈ 0.313 µM) | 0.12 (≈ 0.313 µM) | 0.12 (≈ 0.313 µM) | 0.12 (≈ 0.313 µM) | 0.12 (≈ 0.313 µM) | 0.12 (≈ 0.313 µM) | 0.25 (≈ 0.652 µM) | 8 (≈ 20.9 µM) | 0.12 (≈ 0.313 µM) | MIC (Bacillus anthracis [12]): 0.12 µg/mL (≈ 0.313 µM); MIC (Bacillus anthracis [22]): 0.25 µg/mL (≈ 0.652 µM); MIC (Bacillus anthracis [23]): 0.25 µg/mL (≈ 0.652 µM); MIC (Bacillus anthracis [24]): 0.25 µg/mL (≈ 0.652 µM); MIC (Bacillus anthracis [25]): 0.25 µg/mL (≈ 0.652 µM); MIC (Bacillus anthracis [26]): 0.12 µg/mL (≈ 0.313 µM); MIC (Bacillus anthracis [27]): 0.12 µg/mL (≈ 0.313 µM); MIC (Bacillus anthracis [28]): 0.25 µg/mL (≈ 0.652 µM); MIC (Bacillus anthracis [29]): 0.12 µg/mL (≈ 0.313 µM) |
| O=C(O)c1cn(C2CC2)c2cc(N3CCNCC3)c(F)cc2c1=O [CIPROFLOXACIN] | ≤ 0.06 | ≤ 0.06 | 0.12 (≈ 0.362 µM) | ≤ 0.06 | ≤ 0.06 | 0.25 (≈ 0.754 µM) | ≤ 0.06 | ≤ 0.06 | ≤ 0.06 | 0.25 (≈ 0.754 µM) | 0.12 (≈ 0.362 µM) | 0.12 (≈ 0.362 µM) | 0.12 (≈ 0.362 µM) | ≤ 0.06 | ≤ 0.06 | 0.12 (≈ 0.362 µM) | 0.12 (≈ 0.362 µM) | 0.12 (≈ 0.362 µM) | ≤ 0.06 | ≤ 0.06 | MIC (Bacillus anthracis [22]): 0.12 µg/mL (≈ 0.362 µM); MIC (Bacillus anthracis [23]): ≤ 0.06 µg/mL; MIC (Bacillus anthracis [24]): 0.25 µg/mL (≈ 0.754 µM); MIC (Bacillus anthracis [25]): 1 µg/mL (≈ 3.02 µM); MIC (Bacillus anthracis [26]): ≤ 0.06 µg/mL; MIC (Bacillus anthracis [27]): ≤ 0.06 µg/mL; MIC (Bacillus anthracis [28]): 0.12 µg/mL (≈ 0.362 µM); MIC (Bacillus anthracis [29]): ≤ 0.06 µg/mL; inhibition (Bacillus anthracis [30]): Active; survival at 60 mg/kg (Bacillus anthracis [31]): 90% |
